Measured values taken from ChEMBL document CHEMBL3885861, “Open TG-GATES”.

Species on record: Rattus norvegicus
Assay: Open TG-GATES - Regimen: Single
Type: toxicity, organism-based, Sprague-Dawley
Set-up: regimen Single, gender Male, age 6 weeks
Settings: in vivo, po, 3 mg/kg, route gavage, dose level Low; for gamma-GTP / ALP / ALT / AST / BUN / CRE / Ca / Cl / DBIL / GLC / IP / K / LDH / Na / PL / RALB / TBIL / TC / TG / TP: tissue Plasma; for APTT / Bas / Eos / Fbg / Hb / Ht / Lym / MCH / MCHC / Mono / Neu / Plat / RBC / Ret / WBC: tissue Blood; for KIDNEY_L / KIDNEY_R / KIDNEY_TOTAL: tissue Kidney; for LIVER: tissue Liver

O=C(CCCN1CCC(O)(c2ccc(Cl)cc2)CC1)c1ccc(F)cc1 [HALOPERIDOL]
gamma-GTP (6 h): 1.6 IU/L
TERMINAL_BW (9 h): 199.3 g
APTT (9 h): 16.8 s
Bas (9 h): 0%
Eos (9 h): 0.6%
Fbg (9 h): 204.8 mg/dL
Hb (9 h): 13.6 g/dL
Ht (9 h): 40.5%
Lym (9 h): 70.4%
MCH (9 h): 22 pg
MCHC (9 h): 33.6%
Mono (9 h): 9.6%
Neu (9 h): 19.4%
Plat (9 h): 102.7 x10_4/uL
RBC (9 h): 621.4 x10_4/ul
Ret (9 h): 9.5%
WBC (9 h): 60.9 x10_2/uL
KIDNEY_L (9 h): 0.9 g
KIDNEY_R (9 h): 1 g
KIDNEY_TOTAL (9 h): 1.9 g
LIVER (9 h): 8.5 g
ALP (9 h): 810.6 IU/L
ALT (9 h): 28.4 IU/L
AST (9 h): 56.6 IU/L
BUN (9 h): 10.2 mg/dL
CRE (9 h): 0.5 mg/dL
Ca (9 h): 10.2 mg/dL
Cl (9 h): 106.6 meq/L
DBIL (9 h): 0.018 mg/dL
GLC (9 h): 183.4 mg/dL
IP (9 h): 10.6 mg/dL
K (9 h): 4.6 meq/L
LDH (9 h): 84 IU/L
Na (9 h): 139.2 meq/L
PL (9 h): 126.6 mg/dL
RALB (9 h): 3.6 g/dL
TBIL (9 h): 0.4 mg/dL
TC (9 h): 71 mg/dL
TG (9 h): 31.2 mg/dL
TP (9 h): 5.5 g/dL
gamma-GTP (9 h): 1.8 IU/L
TERMINAL_BW (24 h): 213.8 g
APTT (24 h): 15.9 s
Bas (24 h): 0%
Eos (24 h): 1.2%
Fbg (24 h): 198.8 mg/dL
Hb (24 h): 13.6 g/dL
Ht (24 h): 40.8%
Lym (24 h): 75.6%
MCH (24 h): 22.6 pg
MCHC (24 h): 33.3%
Mono (24 h): 6%
Neu (24 h): 17.2%
Plat (24 h): 105.6 x10_4/uL
RBC (24 h): 601 x10_4/ul
Ret (24 h): 9.4%
WBC (24 h): 75.9 x10_2/uL
KIDNEY_L (24 h): 1 g
KIDNEY_R (24 h): 1 g
KIDNEY_TOTAL (24 h): 1.9 g
LIVER (24 h): 11.3 g
ALP (24 h): 957.8 IU/L
ALT (24 h): 35 IU/L
AST (24 h): 59.2 IU/L
BUN (24 h): 21.2 mg/dL
CRE (24 h): 0.6 mg/dL
Ca (24 h): 11.3 mg/dL
Cl (24 h): 105.4 meq/L
DBIL (24 h): 0.026 mg/dL
GLC (24 h): 180.8 mg/dL
IP (24 h): 7.9 mg/dL
K (24 h): 5 meq/L
LDH (24 h): 104.8 IU/L
Na (24 h): 139.2 meq/L
PL (24 h): 156.6 mg/dL
RALB (24 h): 3.8 g/dL
TBIL (24 h): 0.4 mg/dL
TC (24 h): 80.6 mg/dL
TG (24 h): 102.4 mg/dL
TP (24 h): 5.9 g/dL
